Target: T1, human ferroportin (Homo sapiens, UniProt Q9NP59)
T1 construct: luciferase reporter (read with the Nano-Glo Luciferase Assay System); expressed in transfected cells; host or cells: CHO cells, stably transfected, expression induced with doxycycline
T1 sequence (Q9NP59 1-571): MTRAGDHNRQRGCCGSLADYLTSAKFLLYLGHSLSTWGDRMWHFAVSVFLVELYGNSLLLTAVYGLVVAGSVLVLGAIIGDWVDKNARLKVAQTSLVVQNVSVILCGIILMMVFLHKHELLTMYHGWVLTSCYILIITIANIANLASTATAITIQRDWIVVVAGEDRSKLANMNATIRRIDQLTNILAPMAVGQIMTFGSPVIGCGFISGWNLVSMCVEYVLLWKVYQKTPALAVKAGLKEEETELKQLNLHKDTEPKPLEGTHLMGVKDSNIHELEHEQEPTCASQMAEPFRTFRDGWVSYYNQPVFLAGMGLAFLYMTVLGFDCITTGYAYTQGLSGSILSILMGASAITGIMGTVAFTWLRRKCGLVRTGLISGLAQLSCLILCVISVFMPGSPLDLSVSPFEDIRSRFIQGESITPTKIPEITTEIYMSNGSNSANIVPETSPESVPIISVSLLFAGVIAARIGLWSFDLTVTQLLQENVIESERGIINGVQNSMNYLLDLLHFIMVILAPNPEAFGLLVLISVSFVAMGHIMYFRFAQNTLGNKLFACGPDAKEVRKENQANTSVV
Assay: Biological in-vitro ferroportin internalization assay (luciferase reporter)
Type: cell-based
Conditions: average pEC50; stably-transfected CHO cell line expressing human ferroportin tagged to a luciferase reporter; 6 h incubation with test compound
Outline: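 Read-out is Nano-Glo luciferase signal after 6 h compound exposure, with average pEC50 derived. Cells are a stable CHO line carrying luciferase-tagged human ferroportin, pre-loaded 24 h with ferric ammonium citrate and doxycycline-induced for 24 h.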

Compound	pEC50
COc1ccnc(-c2nc3c(c(N(C)Cc4nc(-c5ccccc5)co4)n2)CCC3)c1 [Compound 380, 2-(4-methoxypyridin-2-yl)-N-methyl-N-[(4-phenyl-1,3-oxazol-2-yl)methyl]-5H,6H,7H-cyclopenta[d]pyrimidin-4-amine]	6.6
CC(C(=O)NC1CCCCC1)N(C)c1nc(-c2ccccn2)nc2c1CCC2 (stereo not drawn) [Compound 91, N-cyclohexyl-2-{methyl[2-(pyridin-2-yl)-5H,6H,7H-cyclopenta[d]pyrimidin-4-yl]amino}propanamide]	7.3
CN(CC(=O)NC(C)(C)C)c1nc(-c2cc(OC[C@@H]3COC(C)(C)O3)ccn2)nc2c1CCC2 [Compound 414, N-tert-butyl-2-{[2-(4-{[(4R)-2,2-dimethyl-1,3-dioxolan-4-yl]methoxy}pyridin-2-yl)-5H,6H,7H-cyclopenta[d]pyrimidin-4-yl](methyl)amino}acetamide]	8.3
CN(C)CCOc1ccnc(-c2nc3c(c(N(C)CC(=O)NCC(F)(F)F)n2)CCC3)c1 [Compound 478, 2-[(2-{4-[2-(dimethylamino)ethoxy]pyridin-2-yl}-5H,6H,7H-cyclopenta[d]pyrimidin-4-yl)(methyl)amino]-N-(2,2,2-trifluoroethyl)acetamide]	7.6
CC(=O)NCCOc1ccnc(-c2nc3c(c(N(C)CC(=O)Nc4cccc(F)c4)n2)CCC3)c1 [Compound 356, 2-({2-[4-(2-acetamidoethoxy)pyridin-2-yl]-5H,6H,7H-cyclopenta[d]pyrimidin-4-yl}(methyl)amino)-N-(3-fluorophenyl)acetamide]	8.3
COc1ccc(NC(=O)CN(C)c2nc(-c3cc(OC)ccn3)nc3c2CCC3)nc1 [Compound 152, N-(5-methoxypyridin-2-yl)-2-{[2-(4-methoxypyridin-2-yl)-5H,6H,7H-cyclopenta[d]pyrimidin-4-yl](methyl)amino}acetamide]	7.9
c1ccc(-c2nc3c(c(N4CCCO[C@@H]5CCC[C@@H]54)n2)CCC3)nc1 [Compound 48, 2-{4-[(5aS,8aR)-octahydro-2H-cyclopenta[b][1,4]oxazepin-5-yl]-5H,6H,7H-cyclopenta[d]pyrimidin-2-yl}pyridine]	6.8
COc1ccnc(-c2nc3c(c(N(C)CC(=O)N4CC[C@@H](O)C4)n2)CCC3)c1 [Compound 471, 1-[(3R)-3-hydroxypyrrolidin-1-yl]-2-{[2-(4-methoxypyridin-2-yl)-5H,6H,7H-cyclopenta[d]pyrimidin-4-yl](methyl)amino}ethan-1-one]	7.4
COc1cccc(NC(=O)[C@@H](C)N(C)c2nc(-c3cn(C)cn3)nc3c2CCC3)c1 [Compound 278, (2R)—N-(3-methoxyphenyl)-2-{methyl[2-(1-methyl-1H-imidazol-4-yl)-5H,6H,7H-cyclopenta[d]pyrimidin-4-yl]amino}propanamide]	7.8
[2H]C([2H])([2H])N(CC(=O)NC(C)(C)C)c1nc(-c2cc(OCC(C)(C)O)ccn2)nc2c1CCC2 [Compound 509, N-tert-butyl-2-({2-[4-(2-hydroxy-2-methylpropoxy)pyridin-2-yl]-5H,6H,7H-cyclopenta[d]pyrimidin-4-yl}((2H3)methyl)amino)acetamide]	8.2
COc1ccnc(-c2nc3c(c(N(C)CC(=O)N[C@H](C)CO)n2)CCC3)c1 [Compound 458, N-[(2R)-1-hydroxypropan-2-yl]-2-{[2-(4-methoxypyridin-2-yl)-5H,6H,7H-cyclopenta[d]pyrimidin-4-yl](methyl)amino}acetamidede]	7.3
C[C@@H](CO)Oc1ccnc(-c2nc3c(c(N(C)CC(=O)NC(C)(C)C)n2)CCC3)c1 [Compound 385, N-tert-butyl-2-{[2-(4-{[(2S)-1-hydroxypropan-2-yl]oxy}pyridin-2-yl)-5H,6H,7H-cyclopenta[d]pyrimidin-4-yl](methyl)amino}acetamide]	8.2
CC(C)NC(=O)CN(C)c1nc(-c2cc(OCCN3CCN(C)CC3)ccn2)nc2c1CCC2 [Compound 432, 2-[methyl(2-{4-[2-(4-methylpiperazin-1-yl)ethoxy]pyridin-2-yl}-5H,6H,7H-cyclopenta[d]pyrimidin-4-yl)amino]-N-(propan-2-yl)acetamide]	7.5
CCC(C)(CC)NC(=O)CN(C)c1nc(-c2cc(OCCO)ccn2)nc2c1CCC2 [Compound 392, 2-({2-[4-(2-hydroxyethoxy)pyridin-2-yl]-5H,6H,7H-cyclopenta[d]pyrimidin-4-yl}(methyl)amino)-N-(3-methylpentan-3-yl)acetamide]	8.3
C[C@H](C(=O)NC1CCCCC1)N(C)c1nc(-c2cn(C)cn2)nc2c1CCC2 [Compound 118, (2R)—N-cyclohexyl-2-{methyl[2-(1-methyl-1H-imidazol-4-yl)-5H,6H,7H-cyclopenta[d]pyrimidin-4-yl]amino}propanamide]	7.8
CCN1CC[C@@H](Oc2ccnc(-c3nc4c(c(N(C)CC(=O)NC(C)(C)C)n3)CCC4)c2)C1 [Compound 496, N-tert-butyl-2-{[2-(4-{[(3R)-1-ethylpyrrolidin-3-yl]oxy}pyridin-2-yl)-5H,6H,7H-cyclopenta[d]pyrimidin-4-yl](methyl)amino}acetamide]	8.0
CN(CC(=O)Nc1cccnc1)c1nc(-c2cc3ccccc3cn2)nc2c1CCC2 [Compound 228]	7.1
c1ccc(-c2nc3c(c(N4CCCc5ccccc54)n2)CCC3)nc1 [Compound 76, 1-[2-(pyridin-2-yl)-5H,6H,7H-cyclopenta[d]pyrimidin-4-yl]-1,2,3,4-tetrahydroquinoline]	6
CN(CC(=O)Nc1ccc(F)nc1)c1nc(-c2cc(OC(F)F)ccn2)nc2c1CCC2 [Compound 216, 2-({2-[4-(difluoromethoxy)pyridin-2-yl]-5H,6H,7H-cyclopenta[d]pyrimidin-4-yl}(methyl)amino)-N-(6-fluoropyridin-3-yl)acetamide]	6.6
C[C@@H]1OC[C@@H]1Oc1ccnc(-c2nc3c(c(N(C)CC(=O)NC(C)(C)C)n2)CCC3)c1 (racemic) [Compound 332, N-tert-butyl-2-{methyl[2-(4-{[(2S,3S)-2-methyloxetan-3-yl]oxy}pyridin-2-yl)-5H,6H,7H-cyclopenta[d]pyrimidin-4-yl]amino}acetamide]	7.8
COc1cccc2c1CCN(c1nc(-c3ccccn3)nc3c1CCC3)CC2 [Compound 3, 6-methoxy-3-[2-(pyridin-2-yl)-5H,6H,7H-cyclopenta[d]pyrimidin-4-yl]-2,3,4,5-tetrahydro-1H-3-benzazepine]	6.8
O=C(CNc1nc(-c2ccccn2)nc2c1CCC2)Nc1ccccc1F [Compound 6, N-(2-fluorophenyl)-2-{[2-(pyridin-2-yl)-5H,6H,7H-cyclopenta[d]pyrimidin-4-yl]amino}acetamide]	6.5
CN(CC(=O)NC(C)(C)C)c1nc(-c2cc3cn(C)nc3cn2)nc2c1CCC2 [Compound 336, N-tert-butyl-2-[methyl(2-{2-methyl-2H-pyrazolo[3,4-c]pyridin-5-yl}-5H,6H,7H-cyclopenta[d]pyrimidin-4-yl)amino]acetamide]	7.8
CN(CC(=O)Nc1cncc(F)c1)c1nc(-c2cc3ccccc3cn2)nc2c1CCC2 [Compound 240, N-(5-fluoropyridin-3-yl)-2-{[2-(isoquinolin-3-yl)-5H,6H,7H-cyclopenta[d]pyrimidin-4-yl](methyl)amino}acetamide]	7.1
CCC(O)(CC)COc1ccnc(-c2nc3c(c(N(C)CC(=O)NC)n2)CCC3)c1 [Compound 443, 2-({2-[4-(2-ethyl-2-hydroxybutoxy)pyridin-2-yl]-5H,6H,7H-cyclopenta[d]pyrimidin-4-yl}(methyl)amino)-N-methylacetamide]	7.8
CCNC(=O)CN(C)c1nc(-c2cc(OCC3(O)CCOCC3)ccn2)nc2c1CCC2 [Compound 447, N-ethyl-2-[(2-{4-[(4-hydroxyoxan-4-yl)methoxy]pyridin-2-yl}-5H,6H,7H-cyclopenta[d]pyrimidin-4-yl)(methyl)amino]acetamide]	7.6
COc1cccnc1-c1nc2c(c(N(C)CC(=O)NC(C)(C)C)n1)CCC2 [Compound 180, N-tert-butyl-2-{[2-(3-methoxypyridin-2-yl)-5H,6H,7H-cyclopenta[d]pyrimidin-4-yl](methyl)amino}acetamide]	5.2
C[C@H](C(=O)Nc1cccc(F)c1)N(C)c1nc(-c2cn(C)cn2)nc2c1CCC2 [Compound 277, (2R)—N-(3-fluorophenyl)-2-{methyl[2-(1-methyl-1H-imidazol-4-yl)-5H,6H,7H-cyclopenta[d]pyrimidin-4-yl]amino}propanamide]	8.2
COc1ccc2cc(-c3nc4c(c(N(C)CC(=O)NC(C)(C)C)n3)CCC4)ncc2c1 [Compound 262, N-tert-butyl-2-{[2-(7-methoxyisoquinolin-3-yl)-5H,6H,7H-cyclopenta[d]pyrimidin-4-yl](methyl)amino}acetamide]	7.1
COc1ccnc(-c2nc3c(c(N(C)CC(=O)N[C@@H]4CCCC[C@H]4O)n2)CCC3)c1 [Compound 141, N-[(1R,2R)-2-hydroxycyclohexyl]-2-{[2-(4-methoxypyridin-2-yl)-5H,6H,7H-cyclopenta[d]pyrimidin-4-yl](methyl)amino}acetamide]	7.1
